Paper PMC11564096, “Structural and mechanistic insights into Streptococcus pneumoniae NADPH oxidase” (Nature Structural & Molecular Biology, 2024)

Key:
[1] = molecular target: T1, SpNOX (Streptococcus pneumoniae NOX) (Streptococcus pneumoniae, UniProt Q8CZ28); type: binding; conditions: substrate-free, 1 mM FAD added; DH domain FAD site
T1 construct: gene spr0531; residues 2-400, N-terminal 6xHis-PreScission tag cleaved, E. coli C41(DE3), LMNG micelles, monomer, 46 kDa, two b-type hemes and FAD
T1 sequence (Q8CZ28 2-400): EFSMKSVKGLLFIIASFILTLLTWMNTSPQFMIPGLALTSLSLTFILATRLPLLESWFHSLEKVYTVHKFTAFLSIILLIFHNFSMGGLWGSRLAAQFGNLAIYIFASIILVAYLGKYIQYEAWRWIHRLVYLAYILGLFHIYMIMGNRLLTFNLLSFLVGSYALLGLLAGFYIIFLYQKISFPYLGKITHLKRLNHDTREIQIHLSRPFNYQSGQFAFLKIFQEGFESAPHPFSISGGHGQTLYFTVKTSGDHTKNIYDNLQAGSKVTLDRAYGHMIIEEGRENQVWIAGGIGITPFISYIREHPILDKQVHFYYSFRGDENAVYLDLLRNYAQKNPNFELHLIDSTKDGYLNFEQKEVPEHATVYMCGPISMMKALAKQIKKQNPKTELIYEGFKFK

[2] = molecular target: T1, SpNOX (Streptococcus pneumoniae NOX); test: cytochrome c reduction assay, absorbance at […] nm; type: biochemical; conditions: 100 µM bovine cytochrome c, 0.1 µM SpNOX, 1 µM FAD, 50 mM Tris pH 7.0, 250 mM NaCl, room temperature, aerobic; read-out: apparent KM

| SMILES | cryo-EM structure, 2.29 Å [1] | Km [2] |
| --- | --- | --- |
| Cc1cc2nc3c(=O)[nH]c(=O)nc-3n(C[C@H](O)[C@H](O)[C@H](O)COP(=O)(O)OP(=O)(O)OC[C@H]3O[C@@H](n4cnc5c(N)ncnc54)[C@H](O)[C@@H]3O)c2cc1C [FAD] | A clear density for FAD was well resolved in all maps | – |
| NC(=O)C1=CN([C@@H]2O[C@H](COP(=O)(O)OP(=O)(O)OC[C@H]3O[C@@H](n4cnc5c(N)ncnc54)[C@H](OP(=O)(O)O)[C@@H]3O)[C@@H](O)[C@H]2O)C=CC1 [NADPH] | – | 7.59 µM |
